# Patent publication US20230135635A1, “INHIBITORS OF ULK1/2 AND METHODS OF USING SAME” (SALK INSTITUTE FOR BIOLOGICAL STUDIES, priority 2020, published 2023)
# Target: T1, recombinant human ULK1 protein (1-649) (Homo sapiens, UniProt O75385)
# T1 construct: recombinant human ULK1 protein (1-649, SignalChem #U01-11G); purchased SignalChem U01-11G
# T1 sequence (O75385 1-649): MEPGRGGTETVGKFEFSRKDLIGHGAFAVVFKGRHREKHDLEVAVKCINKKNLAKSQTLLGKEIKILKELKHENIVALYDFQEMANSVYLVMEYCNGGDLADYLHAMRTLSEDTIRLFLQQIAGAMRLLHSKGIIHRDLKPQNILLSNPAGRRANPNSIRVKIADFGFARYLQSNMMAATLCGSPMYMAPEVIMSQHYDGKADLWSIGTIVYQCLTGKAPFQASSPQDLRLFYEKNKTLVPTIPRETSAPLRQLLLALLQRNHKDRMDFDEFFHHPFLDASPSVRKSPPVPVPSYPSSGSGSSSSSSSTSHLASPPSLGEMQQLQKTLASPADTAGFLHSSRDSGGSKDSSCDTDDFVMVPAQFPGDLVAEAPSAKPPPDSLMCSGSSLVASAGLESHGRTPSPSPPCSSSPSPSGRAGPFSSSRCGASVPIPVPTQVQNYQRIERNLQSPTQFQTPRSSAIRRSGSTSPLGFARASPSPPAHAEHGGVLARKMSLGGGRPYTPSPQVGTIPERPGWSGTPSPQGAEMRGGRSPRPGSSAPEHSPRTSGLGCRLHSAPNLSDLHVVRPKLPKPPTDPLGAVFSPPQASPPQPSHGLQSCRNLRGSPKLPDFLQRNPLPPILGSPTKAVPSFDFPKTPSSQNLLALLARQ
# Test: ULK1 inhibition assay (ADP Glo)
# Assay type: biochemical
# Conditions: Table 1; 25 uM ATP, MBP substrate, one hour
# Outline: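 Recombinant ULK1 (2 ug/mL) phosphorylated myelin basic protein (80 ug/mL) at 25 uM ATP; ADP formed was detected by ADP-Glo after 1 h. Compounds ran in triplicate, 16-dose 3-fold serial dilution from 30 uM, to give IC50.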
row,IC50 [nM],Structure (SMILES)
1,> 10,"CNC(=O)c1ccccc1Nc1nc(Nc2ccc3c(c2)CCN(CCC(N)=O)C3)ncc1Br [Compound A142, 2-{5-Bromo-2-[2-(2-carbamoyl-ethyl)-1,2,3,4-tetrahydro-isoquinolin-6-ylamino]-pyrimidin-4-ylamino}-N-methyl-benzamide]"
2,> 10,"CNC(=O)c1ccccc1Nc1nc(Nc2ccc3c(c2)CC[N+](C)(C)C3)ncc1Br [Compound A143, 6-[5-Bromo-4-(2-methylcarbamoyl-phenylamino)-pyrimidin-2-ylamino]-2,2-dimethyl-1,2,3,4-tetrahydro-isoquinolinium; iodide]"
3,> 10,"CNC(=O)c1ccccc1Nc1nc(Nc2ccc3c(c2)CCN(Cc2ccccn2)C3)ncc1Br [Compound A144, 2-[5-Bromo-2-(2-pyridin-2-ylmethyl-1,2,3,4-tetrahydro-isoquinolin-6-ylamino)-pyrimidin-4-ylamino]-N-methyl-benzamide]"
4,> 10,"CNC(=O)c1ccccc1Nc1nc(Nc2ccc3c(c2)CCN(Cc2ccncn2)C3)ncc1Br [Compound A146, 2-[5-Bromo-2-(2-pyrimidin-4-ylmethyl-1,2,3,4-tetrahydro-isoquinolin-6-ylamino)-pyrimidin-4-ylamino]-N-methyl-benzamide]"
5,> 10,"CNC(=O)c1ccccc1Nc1nc(Nc2ccc3c(c2)CNCC3)ncc1Br [Compound A147, 2-[5-Bromo-2-(1,2,3,4-tetrahydro-isoquinolin-7-ylamino)-pyrimidin-4-ylamino]-N-methyl-benzamide]"
6,> 10,"CNC(=O)c1ccccc1Nc1nc(Nc2ccc3c(c2)CN(CC(=O)N2CCOCC2)CC3)ncc1Br [Compound A148, 2-{5-Bromo-2-[2-(2-morpholin-4-yl-2-oxo-ethyl)-1,2,3,4-tetrahydro-isoquinolin-7-ylamino]-pyrimidin-4-ylamino}-N-methyl-benzamide]"
7,> 10,"CNC(=O)c1ccccc1Nc1nc(Nc2ccc3c(c2)CN(CCOC)CC3)ncc1Br [Compound A149, 2-{5-Bromo-2-[2-(2-methoxy-ethyl)-1,2,3,4-tetrahydro-isoquinolin-7-ylamino]-pyrimidin-4-ylamino}-N-methyl-benzamide]"
8,> 10,"CNC(=O)c1ccccc1Nc1nc(Nc2ccc3c(c2)CN(C(=O)N2CCN(C)CC2)CC3)ncc1Br [Compound A150, 2-{5-Bromo-2-[2-(4-methyl-piperazine-1-carbonyl)-1,2,3,4-tetrahydro-isoquinolin-7-ylamino]-pyrimidin-4-ylamino}-N-methyl-benzamide]"
9,> 10,"CNC(=O)c1ccccc1Nc1nc(Nc2ccc3c(c2)CN(CCN)CC3)ncc1Br [Compound A151, 2-{2-[2-(2-Amino-ethyl)-1,2,3,4-tetrahydro-isoquinolin-7-ylamino]-5-bromo-pyrimidin-4-ylamino}-N-methyl-benzamide]"
10,> 10,"CNC(=O)c1ccccc1Nc1nc(Nc2ccc3c(c2)CN(C(=O)CN)CC3)ncc1Br [Compound A152, 2-{2-[2-(2-Amino-acetyl)-1,2,3,4-tetrahydro-isoquinolin-7-ylamino]-5-bromo-pyrimidin-4-ylamino}-N-methyl-benzamide]"
11,> 10,"CNCC(=O)N1CCc2ccc(Nc3ncc(Br)c(Nc4ccccc4C(=O)NC)n3)cc2C1 [Compound A153, 2-{5-Bromo-2-[2-(2-methylamino-acetyl)-1,2,3,4-tetrahydro-isoquinolin-7-ylamino]-pyrimidin-4-ylamino}-N-methyl-benzamide]"
12,> 10,"CNC(=O)c1ccccc1Nc1nc(Nc2ccc3c(c2)CN(C(=O)CCN)CC3)ncc1Br [Compound A155, 2-{2-[2-(3-Amino-propionyl)-1,2,3,4-tetrahydro-isoquinolin-7-ylamino]-5-bromo-pyrimidin-4-ylamino}-N-methyl-benzamide]"
13,> 10,"CNC(=O)c1ccccc1Nc1nc(Nc2ccc3c(c2)CN(C(=O)CCC(=O)O)CC3)ncc1Br [Compound A156, 4-{7-[5-Bromo-4-(2-methylcarbamoyl-phenylamino)-pyrimidin-2-ylamino]-3,4-dihydro-1H-isoquinolin-2-yl}-4-oxo-butyric acid]"
14,> 10,"CNC(=O)c1ccccc1Nc1nc(Nc2ccc3c(c2)CN(CC(C)O)CC3)ncc1Br (stereo not drawn) [Compound A157, 2-{5-Bromo-2-[2-(2-hydroxy-propyl)-1,2,3,4-tetrahydro-isoquinolin-7-ylamino]-pyrimidin-4-ylamino}-N-methyl-benzamide]"
15,> 10,"CNC(=O)c1ccccc1Nc1nc(Nc2ccc3c(c2)CN(Cc2ccc(OC)cc2)CC3)ncc1Br [Compound A158, 2-{5-Bromo-2-[2-(4-methoxy-benzyl)-1,2,3,4-tetrahydro-isoquinolin-7-ylamino]-pyrimidin-4-ylamino}-N-methyl-benzamide]"
16,> 10,"CNC(=O)c1ccccc1Nc1nc(Nc2ccc3c(c2)CN(Cc2cccnc2)CC3)ncc1Br [Compound A159, 2-[5-Bromo-2-(2-pyridin-3-ylmethyl-1,2,3,4-tetrahydro-isoquinolin-7-ylamino)-pyrimidin-4-ylamino]-N-methyl-benzamide]"
17,> 10,"CNC(=O)c1ccccc1Nc1nc(Nc2ccc3c(c2)CN(Cc2ccncn2)CC3)ncc1Br [Compound A160, 2-[5-Bromo-2-(2-pyrimidin-4-ylmethyl-1,2,3,4-tetrahydro-isoquinolin-7-ylamino)-pyrimidin-4-ylamino]-N-methyl-benzamide]"
18,> 10,"CNC(=O)c1ccccc1Nc1nc(Nc2ccc3c(c2)CN(S(N)(=O)=O)CC3)ncc1Br [Compound A161, 2-[5-Bromo-2-(2-sulfamoyl-1,2,3,4-tetrahydro-isoquinolin-7-ylamino)-pyrimidin-4-ylamino]-N-methyl-benzamide]"
19,> 10,"CNC(=O)c1ccccc1Nc1nc(Nc2ccc3c(c2)CN(Cc2ccncc2)CC3)ncc1Br [Compound A162, 2-[5-Bromo-2-(2-pyridin-4-ylmethyl-1,2,3,4-tetrahydro-isoquinolin-7-ylamino)-pyrimidin-4-ylamino]-N-methyl-benzamide]"
20,> 10,"CNC(=O)c1ccccc1Nc1nc(Nc2ccc3c(c2)CN(Cc2ccccn2)CC3)ncc1Br [Compound A163, 2-[5-Bromo-2-(2-pyridin-2-ylmethyl-1,2,3,4-tetrahydro-isoquinolin-7-ylamino)-pyrimidin-4-ylamino]-N-methyl-benzamide]"
21,> 10,"CNC(=O)c1ccccc1Nc1nc(Nc2ccc3c(c2)CN(CCC(=O)O)CC3)ncc1Br [Compound A164, 3-{7-[5-Bromo-4-(2-methylcarbamoyl-phenylamino)-pyrimidin-2-ylamino]-3,4-dihydro-1H-isoquinolin-2-yl}-propionic acid]"
22,> 10,"CNC(=O)c1ccccc1Nc1nc(Nc2ccc3c(c2)CN(CCC(N)=O)CC3)ncc1Br [Compound A166, 2-{5-Bromo-2-[2-(2-carbamoyl-ethyl)-1,2,3,4-tetrahydro-isoquinolin-7-ylamino]-pyrimidin-4-ylamino}-N-methyl-benzamide]"
23,> 10,"CNC(=O)c1ccccc1Nc1nc(Nc2ccc3c(c2)CN(C)CC3)ncc1Br [Compound A167, 2-[5-Bromo-2-(2-methyl-1,2,3,4-tetrahydro-isoquinolin-7-ylamino)-pyrimidin-4-ylamino]-N-methyl-benzamide]"
24,> 10,"CNC(=O)c1ccccc1Nc1nc(Nc2ccc3c(c2)C[N+](C)(C)CC3)ncc1Br [Compound A168, 7-[5-Bromo-4-(2-methylcarbamoyl-phenylamino)-pyrimidin-2-ylamino]-2,2-dimethyl-1,2,3,4-tetrahydro-isoquinolinium; iodide]"

# Same assay, conditions: Table 2
row,IC50 [nM],Structure (SMILES)
1,> 1000,CNC(=O)c1ccccc1Oc1nc(Nc2cc(F)c(F)c(F)c2)ncc1Br [Compound B1]
2,< 100,COC(=O)c1ccccc1Oc1nc(Nc2cc(OC)c(OC)c(OC)c2)ncc1Br [Compound B2]
3,100 to 1000,COc1cc(Nc2ncc(Br)c(Oc3ccccc3C(=O)N(C)CCO)n2)cc(OC)c1OC [Compound B3]
4,100 to 1000,COc1cc(Nc2ncc(Br)c(Oc3ccccc3C(=O)O)n2)cc(OC)c1OC [Compound B4]
5,100 to 1000,COC(=O)CN(C)C(=O)c1ccccc1Oc1nc(Nc2cc(OC)c(OC)c(OC)c2)ncc1Br [Compound B5]
6,100 to 1000,COc1cc(Nc2ncc(Br)c(Oc3ccccc3C(=O)NCC(F)(F)F)n2)cc(OC)c1OC [Compound B6]
7,> 1000,COc1cc(Nc2ncc(Br)c(Oc3ccccc3C(=O)NCCN(C)C)n2)cc(OC)c1OC [Compound B7]
8,> 1000,COc1cc(Nc2ncc(Br)c(Oc3ccccc3C(=O)NCCS(C)(=O)=O)n2)cc(OC)c1OC [Compound B8]
9,> 1000,COc1cc(Nc2ncc(Br)c(Oc3ccccc3C(=O)N3CCOCC3)n2)cc(OC)c1OC [Compound B9]
10,> 1000,COc1cc(Nc2ncc(Br)c(Oc3ccccc3C(=O)NCCC#N)n2)cc(OC)c1OC [Compound B10]
11,< 100,COC(=O)c1ccccc1Oc1nc(Nc2ccc(N3CCN(C)CC3)cc2)ncc1Br [Compound B11]
12,> 1000,COC(=O)c1ccccc1Oc1nc(Nc2ccc(N3CCOCC3)cc2)ncc1Br [Compound B12]
